Laboratory results from patent US20220372585A1, “Sensors for Aromatic Compounds and Methods of Making and Using Same” (Washington University, priority 2021, published 2022).
“Also recorded” adds a separate entry of the source. Read-outs that look alike come from different tables or passages of the source.

Legend:
[1] = tested on: wild-type TynA and A81L FeaR; assay: microbe, parasite or virus in culture; type: cell-based, E. coli MG1655; details: for response: A81L FeaR; for EC50: Escherichia coli, read-out: KA (half maximal constant), wild-type TynA + A81L FeaR
Method: (§1) Flow cytometry was performed as previously described. […] Cytometry data was gated by forward and side scatter.

[2] = tested on: wild-type TynA with A81P FeaR; assay: microbe, parasite or virus in culture; type: cell-based, E. coli MG1655; details: for EC50: Escherichia coli, read-out: KA (half maximal constant), wild-type TynA + A81P FeaR
Method: as §1

TynA-FeaR system = assay: microbe, parasite or virus in culture; details: for EC50 / fold induction at 1250 µM: Escherichia coli; for EC50: read-out: KA (half maximal constant); for fold induction at 1250 µM: read-out: fold induction of the reporter; for Fmax / Fmin / n (Hill coefficient): wild-type TynA and FeaR, pCX008, pHJY022
Method: To develop sensors for aromatic amines, the TynA-FeaR system was first characterized in EcN. A sensor plasmid was constructed, which consisted of constitutively expressed TynA and FeaR from E. coli MG1655, and a reporter plasmid, which consisted of GFP under the control of PtynA (see e.g., FIG. 3B). […] Next, the sensitivity and selectivity to different ligands was characterized.
For fluorescence-based quantification, single colonies were transferred to 5 mL LB medium (VWR, Radnor, Pa., USA) in 14 mL round bottom tubes and incubated overnight at 250 rpm and 37° C. Unless otherwise specified, experimental cultures were prepared by diluting overnight cultures 100× into 0.6 mL M9 minimal medium supplemented with 1 mM MgSO4, […]), and 2% w/v glycerol as well as the respective ligands (DA, PEA, Tyra, and Trypta) in 2 mL 96-deep well plates. Cultures were grown for 24 h at 37° C. and 250 rpm. After 5 h and 24 h of incubation, samples were obtained from the cultures for flow cytometry analysis.
Flow cytometry was performed as previously described. Culture samples were collected and diluted to a final OD600 of ˜0.005-0.01 in […] filtered phosphate-buffered saline supplemented with 2 mg/ml kanamycin in 96-well assay microplates (U-bottom, REF-353910 from BD Biosciences, San Jose, Calif., USA). The fluorescence of the samples was measured using a Millipore Guava EasyCyte High Throughput flow cytometer with a 488 nm excitation laser and 512/18 nm emission filter. Cytometry data was gated by forward and side scatter. FlowJo (TreeStar Inc.) was used to obtain the arithmetic mean of the fluorescence distribution. The averages of the arithmetic means were calculated from three biological replicates. The average fluorescence of the non-fluorescent wild-type cell was subtracted from each sample to obtain the final fluorescence (au) values (Equation 2). To obtain the relative fluorescence in FIG. 6A-FIG. 6C, fluorescence values for each variant were normalized to the fluorescence of the wild-type sensor using Equation 3.
The Hill equation (Equations 4 and 5) was used to fit lines to the fluorescence data. The model was fit to the experimentally collected data by minimizing the root mean square error (RMSE; Equation 6).

G494S TynA and A81S FeaR = type: cell-based, E. coli MG1655; details: for Fmax / Fmin / n (Hill coefficient): G494S TynA + A81S FeaR, pCX008, pCX032
Method: as §1

[3] = tested on: G494S TynA with wild-type FeaR; type: cell-based, E. coli MG1655; details: for Fmax / Fmin / n (Hill coefficient): G494S TynA + wild-type FeaR, pCX008, pCX010
Method: as §1

[4] = tested on: wild-type TynA with A81T FeaR; type: cell-based, E. coli MG1655; details: 24 h; for effect of the A81T FeaR mutation on the response of the sensor: wild-type TynA, 1 mM, FIG. 21
Method: as §1

[5] = tested on: G494S TynA with A81T FeaR; type: cell-based, E. coli MG1655; details: for response: G494S*; for Fmax / Fmin / n (Hill coefficient): G494S TynA + A81T FeaR, pCX008, pCX014
Method: as §1

[6] = tested on: G415H TynA with wild-type FeaR; type: cell-based, E. coli MG1655; details: for response: G415H; for Fmax / Fmin / n (Hill coefficient): G415H TynA + wild-type FeaR, pCX008, pCX015
Method: as §1

[7] = tested on: TynA-KP with FeaR-KA I109N; assay: GFP fluorescence from PtynA-MG with TynA-KP and FeaR-KA I109N; type: cell-based, Klebsiella aerogenes; details: for induction of fluorescence: I109N variant, 0.5 mM, 24 h, FIG. 32
Description: FIG. 32. […] Sensor system with PtynA-MG, TynA-KP and FeaR-KA was chosen as the wild type (WT) for further directed evolution. TynA-KP was employed to reduce the possible interference from DA during evolution processes. Values and error bars are the average and standard deviation of biological triplicate, respectively.
FIG. 33A-FIG. 33B. […] The expression of PtynA-MG was regulated by the TynA-KP with FeaR-KA I109N mutant. Points represent experimental data while lines represent the fitted curves. […] Values and error bars are the average and standard deviation of biological triplicate, respectively.

[8] = wild-type TynA + A81L FeaR, pCX008, pCX024, FIG. 5C, 24 h
[9] = wild-type TynA + A81L FeaR, pCX008, pCX024, FIG. 24, 5 h
[10] = wild-type TynA + A81P FeaR, pCX008, pCX025, FIG. 25A, 5 h
[11] = wild-type TynA + A81P FeaR, pCX008, pCX025, FIG. 25B, 24 h
[12] = wild-type TynA + A81T FeaR, pCX008, pCX016, FIG. 22A

NCCc1c[nH]c2ccccc12 [Tryptamine, tryptamine]
response ([1]; 5 h, FIG. 24): lack of response
response ([1]; 24 h, FIG. 5C): lack of response
response ([2]; A81P FeaR, 5 h and 24 h, FIG. 25A-B): lack of response
EC50 (TynA-FeaR system; 5 h): 45 µM
EC50 (TynA-FeaR system; 24 h): 85 µM
fold induction at 1250 µM (TynA-FeaR system): ~280
Fmax (TynA-FeaR system; FIG. 3D, 24 h induction): 268
Fmin (TynA-FeaR system; FIG. 3D, 24 h induction): 1.3
n (Hill coefficient) (TynA-FeaR system; FIG. 3D, 24 h induction): 4.3
Fmax (TynA-FeaR system; FIG. 14, 5 h induction): 57
Fmin (TynA-FeaR system; FIG. 14, 5 h induction): 5.9
n (Hill coefficient) (TynA-FeaR system; FIG. 14, 5 h induction): 3.1
response (G494S TynA and A81S FeaR; G494S TynA and A81S FeaR, 5 h and 24 h, FIG. 23A-B): lack of response
response ([3]; G494S TynA, wild-type FeaR, 5 h and 24 h, FIG. 18A-B): lack of response
effect of the A81T FeaR mutation on the response of the sensor [4]: significantly reduced
response ([5]; 5 h, FIG. 17A): lack of response
response ([5]; 24 h, FIG. 4C): lack of response
response ([6]; 5 h, FIG. 17B): lack of response
response ([6]; 24 h, FIG. 4D): lack of response; also recorded: minimal response
response ([7]; FeaR-KA I109N, 5 h and 24 h, FIG. 33A-B): lack of response
induction of fluorescence [7]: induction of fluorescence

NCCc1ccccc1 [Phenylethylamine, phenylethylamine]
fold induction ([1]; A81L sensor, FIG. 5C): 580 fold
EC50 ([1]; 5 h, pCX008, pCX024, FIG. 24, 5 h): 74 µM
EC50 ([1]; 24 h, pCX008, pCX024, FIG. 5C, 24 h): 140 µM
Fmax [1, 8]: 585
Fmin [1, 8]: 4.8
KA (half maximal constant) [1, 8]: 0.137 mM
n (Hill coefficient) [1, 8]: 2.7
Fmax [1, 9]: 289
Fmin [1, 9]: 5.1
n (Hill coefficient) [1, 9]: 2.6
EC50 ([2]; 5 h, pCX008, pCX025, FIG. 25A, 5 h): 14 µM
EC50 ([2]; 24 h, pCX008, pCX025, FIG. 25B, 24 h): 50 µM
Fmax [2, 10]: 14
Fmin [2, 10]: 0.4
n (Hill coefficient) [2, 10]: 8.4
Fmax [2, 11]: 112
Fmin [2, 11]: 1.1
KA (half maximal constant) [2, 11]: 0.052 mM
n (Hill coefficient) [2, 11]: 20.3
EC50 (TynA-FeaR system; 5 h): 42 µM
EC50 (TynA-FeaR system; 24 h): 87 µM
fold induction at 1250 µM (TynA-FeaR system): > 1500
Fmax (TynA-FeaR system; FIG. 3D, 24 h induction): 1430
Fmin (TynA-FeaR system; FIG. 3D, 24 h induction): 0
n (Hill coefficient) (TynA-FeaR system; FIG. 3D, 24 h induction): 3.9
Fmax (TynA-FeaR system; FIG. 14, 5 h induction): 315
Fmin (TynA-FeaR system; FIG. 14, 5 h induction): 10.4
n (Hill coefficient) (TynA-FeaR system; FIG. 14, 5 h induction): 2
Fmax (G494S TynA and A81S FeaR; FIG. 23A, 5 h): 462
Fmin (G494S TynA and A81S FeaR; FIG. 23A, 5 h): 3.4
n (Hill coefficient) (G494S TynA and A81S FeaR; FIG. 23A, 5 h): 1.2
Fmax (G494S TynA and A81S FeaR; FIG. 25B, 22B [sic], 24 h): 475
Fmin (G494S TynA and A81S FeaR; FIG. 25B, 22B [sic], 24 h): 5.9
n (Hill coefficient) (G494S TynA and A81S FeaR; FIG. 25B, 22B [sic], 24 h): 1.5
Fmax ([3]; FIG. 18A, 5 h): 18
Fmin ([3]; FIG. 18A, 5 h): 0.8
n (Hill coefficient) ([3]; FIG. 18A, 5 h): 36
Fmax ([3]; FIG. 18B, 22B, 24 h): 4012
Fmin ([3]; FIG. 18B, 22B, 24 h): 3.4
n (Hill coefficient) ([3]; FIG. 18B, 22B, 24 h): 1.3
fold induction ([3]; G494S single mutant sensor): 50 fold
Fmax [4, 12]: 1010
Fmin [4, 12]: 18
n (Hill coefficient) [4, 12]: 4.3
effect of the A81T FeaR mutation on the response of the sensor [4]: insignificant impact
Fmax ([5]; FIG. 4C, 22B, 24 h): 790
Fmin ([5]; FIG. 4C, 22B, 24 h): 5.4
n (Hill coefficient) ([5]; FIG. 4C, 22B, 24 h): 1.4
Fmax ([5]; FIG. 17A, 5 h): 9280
Fmin ([5]; FIG. 17A, 5 h): 1.1
n (Hill coefficient) ([5]; FIG. 17A, 5 h): 1.2
fold induction ([5]; G494S* double mutant sensor): 140 fold
Fmax ([6]; FIG. 4D, 24 h): 84
Fmin ([6]; FIG. 4D, 24 h): 0
n (Hill coefficient) ([6]; FIG. 4D, 24 h): 0.6
Fmax ([6]; FIG. 17B, 5 h): 118
Fmin ([6]; FIG. 17B, 5 h): 0
n (Hill coefficient) ([6]; FIG. 17B, 5 h): 0.4
induction of fluorescence [7]: not
